Here are results for 24 compounds from patent US8637510B2, “Morpholinothiazoles as alpha 7 positive allosteric modulators” (Janssen Pharmaceutica NV, priority 2009, dated 2014).

Each structure is given as a SMILES string.

This test concerns the target T1, human alpha 7-wt nAChR (Homo sapiens, UniProt P36544).
T1 construct: expressed in transfected cells
Description: Ca2+ flux imaging (FDSS) (Protocol B). Type of test: cell-based. As to conditions: for Emax: efficacy of 100 μM choline defined as 100% in the absence of a PAM, read-out: a7-PAM-G_[33]_Eff_Curve_FI % Efficacy; for EC50: potentiation of 100 μM choline, compounds 0.01 μM to 30 μM, read-out: a7-PAM-G_[33]_pEC50 pEC50 (converted). Here is the method:
Ca^2+ Flux Imaging (FDSS) (Protocol B)
• Hanks buffered saline solution (HBSS, Invitrogen, Belgium), supplemented with 10 mM HEPES (Invitrogen, Belgium), CaCl2 to a final concentration of 5 mM, 0.1% Bovine serum albumin (Sigma-Aldrich NV, Belgium). b) Calcium-Sensitive Dye—Fluo-4AM • Fluo-4AM (Molecular Probes, USA) was dissolved in DMSO containing 10% Pluronic acid (Molecular Probes, USA) to give a stock solution which was diluted in assay buffer supplemented with 5 mM probenicid (Sigma, Aldrich NV, Belgium) to give a final concentration of 2 μM. c) 384-Well Plates • Black-sided, transparent bottomed 384 well plates coated with poly-D-lysine, PDL pre-coated (Corning, Incorporated, USA) d) Calcium Flux Measurement • A Functional drug screening system (FDSS, Hamamatsu) was used to measure intracellular free-calcium flux signals. Method
Monolayers of human alpha 7-wt nAChR-expressing cells were grown in black-sided, transparent bottomed 384 well plates coated with PDL for 24 hours prior to loading with a fluorescent calcium indicator, fluo-4AM for up to 120 minutes.
PAM activity was detected in real time by applying the compounds to be tested to the loaded cells along with an alpha 7 nicotinic receptor agonist during constant monitoring of cellular fluorescence in a FDSS. Compounds giving peak fluorescent responses greater than the response due to agonist alone, were considered to be alpha 7 nAChR PAMs. The alpha 7 nicotinic receptor agonist was choline, applied at a sub-maximal concentration of 100 μM. In a further setting of the present invention the compounds were applied prior to the alpha 7 nicotinic receptor agonist, in a particular 10 minutes prior to the agonist.
A control response to choline was calculated on each plate from the difference in peak in fluorescence in wells receiving either choline or assay buffer alone. Compounds of the present invention were tested at a concentration range from 0.01 μM to 30 μM. Compounds were considered to have an interesting activity when they potentiated the choline signal at least with 200% when tested at a concentration of 30 μM (the efficacy of 100 μM choline was defined as 100% in the absence of a PAM). An EC50 (or pEC50) was determined as a concentration relating to half the maximal effect, when a clear sigmoidal curve with top plateau was obtained.

T1 sequence (P36544 23-502): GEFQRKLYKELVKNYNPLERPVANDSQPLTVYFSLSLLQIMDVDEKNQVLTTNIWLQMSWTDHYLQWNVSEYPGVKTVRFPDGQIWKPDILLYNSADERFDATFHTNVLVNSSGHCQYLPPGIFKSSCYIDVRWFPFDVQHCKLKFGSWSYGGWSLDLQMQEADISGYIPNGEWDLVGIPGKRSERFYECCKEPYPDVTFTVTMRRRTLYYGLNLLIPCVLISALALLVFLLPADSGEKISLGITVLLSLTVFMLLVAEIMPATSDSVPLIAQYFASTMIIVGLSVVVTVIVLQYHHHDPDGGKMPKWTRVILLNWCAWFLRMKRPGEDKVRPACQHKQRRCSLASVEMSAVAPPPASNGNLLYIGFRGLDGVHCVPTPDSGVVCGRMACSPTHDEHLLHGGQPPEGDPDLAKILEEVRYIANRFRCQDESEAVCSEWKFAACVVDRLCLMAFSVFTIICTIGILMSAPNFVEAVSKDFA

In the case of `Cc1cc(-c2sc(N3C[C@@H](C)O[C@@H](C)C3)nc2CNC(=O)c2ccc(Cl)cc2C)cc(C)n1` [Compound 22, 4-chloro-N-[[2-[(2R,6S)-2,6-dimethyl-4-morpholinyl]-5-(2,6-dimethyl-4-pyridinyl)-4-thiazolyl]methyl]-2-methyl-benzamide], the Emax was 484% and the EC50 is 20 nM.

For the compound `Cc1cc(-c2sc(N3C[C@@H](C)O[C@@H](C)C3)nc2CNC(=O)c2cc(C)nn2C)cc(C)n1` [Compound 136, N-[[2-[(2R,6S)-2,6-dimethyl-4-morpholinyl]-5-(2,6-dimethyl-4-pyridinyl)-4-thiazolyl]methyl]-1,3-dimethyl-1H-pyrazole-5-carboxamide], the EC50 is 1950 nM.

On to `Cc1cc(-c2sc(N3CCOC(C)(C)C3)nc2CNC(=O)C(C)C)cc(C)n1` [Compound 183, N-[[2-(2,2-dimethyl-4-morpholinyl)-5-(2,6-dimethyl-4-pyridinyl)-4-thiazolyl]methyl]-2-methyl-propanamide], for which the EC50 was 2750 nM.

Turning to `Cc1cc(-c2sc(N3C[C@@H](C)O[C@@H](C)C3)nc2CNC(=O)c2scnc2C)cc(C)n1` [Compound 153, N-[[2-[(2R,6S)-2,6-dimethyl-4-morpholinyl]-5-(2,6-dimethyl-4-pyridinyl)-4-thiazolyl]methyl]-4-methyl-5-thiazolecarboxamide], the EC50 is 2750 nM.

Take `Cc1cc(-c2sc(N3C[C@@H](C)O[C@@H](C)C3)nc2CNC(=O)c2conc2C)ccn1` [Compound 86, N-[[2-[(2R,6S)-2,6-dimethyl-4-morpholinyl]-5-(2-methyl-4-pyridinyl)-4-thiazolyl]methyl]-3-methyl-4-isoxazolecarboxamide]: the Emax came to 479% and the EC50 was 759 nM.

Regarding `Cc1cc(-c2sc(N3CC(C)OC(C)C3)nc2CNC(=O)c2ccc(F)cc2C)cc(C)n1` (racemic) [Compound 56, N-[[2-[2,6-dimethyl-4-morpholinyl]-5-(2,6-dimethyl-4-pyridinyl)-4-thiazolyl]methyl]-4-fluoro-2-methyl-benzamide], the EC50 was 234 nM.

As to `Cc1cc(-c2sc(N3C[C@@H](C)O[C@@H](C)C3)nc2CNC(=O)c2ocnc2C)cc(C)n1` [Compound 152, N-[[2-[(2R,6S)-2,6-dimethyl-4-morpholinyl]-5-(2,6-dimethyl-4-pyridinyl)-4-thiazolyl]methyl]-4-methyl-5-oxazolecarboxamide], the EC50 is 6920 nM.

On to `Cc1cc(-c2sc(N3CCOC(C)(C)C3)nc2CNC(=O)c2cc(C)on2)cc(C)n1` [Compound 181, N-[[2-(2,2-dimethyl-4-morpholinyl)-5-(2,6-dimethyl-4-pyridinyl)-4-thiazolyl]methyl]-5-methyl-3-isoxazolecarboxamide], for which the Emax came to 991% and the EC50 was 1910 nM.

As for `Cc1cc(-c2sc(N3C[C@@H](C)O[C@@H](C)C3)nc2CNC(=O)C(C)C)cc(C2CC2)n1` [Compound 108, N-[[5-(2-cyclopropy1-6-methyl-4-pyridinyl)-2-[(2R,6S)-2,6-dimethyl-4-morpholinyl]-4-thiazolyl]methyl]-2-methyl-propanamide], the Emax came out at 764% and the EC50 is 72.4 nM.

For `Cc1cc(-c2sc(N3C[C@@H](C)O[C@@H](C)C3)nc2CNC(=O)CC(C)C)cc(C2CC2)n1` [Compound 110, N-[[5-(2-cyclopropy1-6-methyl-4-pyridinyl)-2-[(2R,6S)-2,6-dimethyl-4-morpholinyl]-4-thiazolyl]methyl]-3-methyl-butanamide], the Emax turned out to be 957% and the EC50 was 12.3 nM.

For `COc1nc(C)c(C(=O)NCc2nc(N3C[C@@H](C)O[C@@H](C)C3)sc2-c2cc(C)nc(C)c2)s1` [Compound 158, N-[[2-[(2R,6S)-2,6-dimethyl-4-morpholinyl]-5-(2,6-dimethyl-4-pyridinyl)-4-thiazolyl]methyl]-2-methoxy-4-methyl-5-thiazolecarboxamide], the Emax was 951% and the EC50 is 1580 nM.

On to `Cc1cc(-c2sc(N3C[C@@H](C)O[C@@H](C)C3)nc2CNC(=O)c2coc(C)n2)cc(C)n1` [Compound 31, N-[[2-[(2R,6S)-2,6-dimethyl-4-morpholinyl]-5-(2,6-dimethyl-4-pyridinyl)-4-thiazolyl]methyl]-2-methyl-4-oxazolecarboxamide], for which the Emax turned out to be 495%.

As for `Cc1cc(-c2sc(N3C[C@@H](C)O[C@@H](C(F)(F)F)C3)nc2CNC(=O)CC2CC2)cc(C)n1` [Compound 203, N-[[5-(2,6-dimethyl-4-pyridinyl)-2-[(2R,6R)-2-methyl-6-(trifluoromethyl)-4-morpholinyl]-4-thiazolyl]methyl]-cyclopropaneacetamide], the EC50 was 7.24 nM.

Regarding `Cc1cc(-c2sc(N3C[C@@H](C)O[C@@H](C)C3)nc2CNC(=O)c2ccccc2F)cc(C)n1` [Compound 6, N-[[2-[(2R,6S)-2,6-dimethyl-4-morpholinyl]-5-(2,6-dimethyl-4-pyridinyl)-4-thiazolyl]methyl]-2-fluoro-benzamide], the Emax is 313%.

`Cc1cc(-c2sc(N3C[C@@H](C)O[C@@H](C)C3)nc2CNC(=O)C2CC2)cc(C2CC2)n1` [Compound 109, N-[[5-(2-cyclopropy1-6-methyl-4-pyridinyl)-2-[(2R,6S)-2,6-dimethyl-4-morpholinyl]-4-thiazolyl]methyl]-cyclopropanecarboxamide]: the Emax is 826% and the EC50 is 224 nM.

For `Cc1cc(-c2sc(N3C[C@@H](C)O[C@@H](C)C3)nc2CNC(=O)c2oc(C)cc2C)cc(C)n1` [Compound 173, N-[[2-[(2R,6S)-2,6-dimethyl-4-morpholinyl]-5-(2,6-dimethyl-4-pyridinyl)-4-thiazolyl]methyl]-3,5-dimethyl-2-furancarboxamide], the Emax came out at 425% and the EC50 was 776 nM.

As for `CC(C)C(=O)NCc1nc(N2CCOCC2)sc1-c1ccncc1` [Compound 115, 2-methyl-N-[[2-(4-morpholinyl)-5-(4-pyridinyl)-4-thiazolyl]methyl]-propanamide], the Emax amounted to 230% and the EC50 was 9330 nM.

In the case of `Cc1cc(-c2sc(N3C[C@@H](C)O[C@@H](C)C3)nc2CNC(=O)c2ccoc2C)cc(C)n1` [Compound 151, N-[[2-[(2R,6S)-2,6-dimethyl-4-morpholinyl]-5-(2,6-dimethyl-4-pyridinyl)-4-thiazolyl]methyl]-2-methyl-3-furancarboxamide], the EC50 was 871 nM.

As to `Cc1cc(-c2sc(N3C[C@@H](C)O[C@@H](C)C3)nc2CNC(=O)c2cc(C(C)C)on2)cc(C)n1` [Compound 135, N-[[2-[(2R,6S)-2,6-dimethyl-4-morpholinyl]-5-(2,6-dimethyl-4-pyridinyl)-4-thiazolyl]methyl]-5-(1-methylethyl)-3-isoxazolecarboxamide], the EC50 is 537 nM.

`Cc1cc(-c2sc(N3C[C@@H](C)O[C@@H](C)C3)nc2CNC(=O)c2snnc2C)cc(C)n1` [Compound 155, N-[[2-[(2R,6S)-2,6-dimethyl-4-morpholinyl]-5-(2,6-dimethyl-4-pyridinyl)-4-thiazolyl]methyl]-4-methyl-1,2,3-thiadiazole-5-carboxamide]: the EC50 is 75.9 nM.

With `COc1ccc(C(=O)NCc2nc(N3C[C@@H](C)O[C@@H](C)C3)sc2-c2cc(C)nc(C)c2)cc1` [Compound 30, N-[[2-[(2R,6S)-2,6-dimethyl-4-morpholinyl]-5-(2,6-dimethyl-4-pyridinyl)-4-thiazolyl]methyl]-4-methoxy-benzamide], the Emax was found to be 551% and the EC50 is 513 nM.

On to `Cc1cc(-c2sc(N3C[C@@H](C)O[C@@H](C)C3)nc2CNC(=O)CCC(C)C)cc(C)n1` [Compound 51, N-[[2-[(2R,6S)-2,6-dimethyl-4-morpholinyl]-5-(2,6-dimethyl-4-pyridinyl)-4-thiazolyl]methyl]-4-methyl-pentanamide], for which the Emax was 960% and the EC50 is 60.3 nM.

As to `Cc1cc(-c2sc(N3C[C@@H](C)O[C@@H](C)C3)nc2CNC(=O)c2cc(C)n(C)n2)cc(C)n1` [Compound 131, N-[[2-[(2R,6S)-2,6-dimethyl-4-morpholinyl]-5-(2,6-dimethyl-4-pyridinyl)-4-thiazolyl]methyl]-1,5-dimethyl-1H-pyrazole-3-carboxamide], the Emax is 462%.

Take `Cc1cc(-c2sc(N3C[C@@H](C)O[C@@H](C)C3)nc2CNC(=O)c2nc(C)oc2C(F)(F)F)cc(C)n1` [Compound 20, N-[[2-[(2R,6S)-2,6-dimethyl-4-morpholinyl]-5-(2,6-dimethyl-4-pyridinyl)-4-thiazolyl]methyl]-2-methyl-5-(trifluoromethyl)-4-oxazolecarboxamide]: the Emax is 253% and the EC50 was 1740 nM.
